In this test the target is T1, CCR1 (Homo sapiens, UniProt P32246).
T1 sequence (P32246 1-355): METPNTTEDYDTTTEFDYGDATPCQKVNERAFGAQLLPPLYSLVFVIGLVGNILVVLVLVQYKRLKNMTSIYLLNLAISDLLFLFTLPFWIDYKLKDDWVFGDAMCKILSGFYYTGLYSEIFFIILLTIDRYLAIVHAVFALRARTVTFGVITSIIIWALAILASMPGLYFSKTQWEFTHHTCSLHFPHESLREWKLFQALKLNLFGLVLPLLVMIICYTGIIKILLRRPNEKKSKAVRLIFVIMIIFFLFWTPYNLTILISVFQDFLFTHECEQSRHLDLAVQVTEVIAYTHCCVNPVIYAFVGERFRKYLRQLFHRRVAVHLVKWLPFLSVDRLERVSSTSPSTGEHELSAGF
The experiment in a line: Method B: calcium flux in CCR1 transfected cells (Calcium 4 dye, […] FDSS6000), block of the CCR1/MIP-1α interaction. As to conditions: Method B: Calcium 4 dye, MIP-1alpha at EC80. It counts as cell-based. The method, boiled down:
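Calcium flux on an FDSS6000 was triggered by MIP-1α at its EC80 in stably CCR1/G-alpha-16-expressing non-adherent cells. Before this, Calcium 4-loaded cells were preincubated with compound in HBSS, 20 mM HEPES pH 7.4, 1% DMSO: 30 min at 37 C plus 30 min at room temperature. Ten 4-fold doses began at 3,000 nM, with ±MIP-1α DMSO wells as controls.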
For orientation: Calcium flux is commonly read through the fluorescence of an indicator in the cells.

On to `COC[C@H](NC(=O)c1cncc2c1cnn2-c1ccc(F)cc1)c1ccnc(S(C)(=O)=O)c1` [1-(4-Fluorophenyl)-1H-pyrazolo[3,4-c]pyridine-4-carboxylic acid [(R)-1-(2-methanesulfonyl-pyridin-4-yl)-2-methoxy-ethyl]-amide], for which the IC50 came out at 1 nM.
For `CC[C@H](NC(=O)c1cncc2c1cnn2-c1ccc(F)cc1)c1cccc(S(=O)(=O)CCC(=O)OC)n1` [3-[6-((S)-1-{[1-(4-Fluorophenyl)-1H-pyrazolo[3,4-c]pyridine-4-carbonyl]-amino}-propyl)-pyridine-2-sulfonyl]-propionic acid methyl ester] the value was 3 nM; for `CC[C@H](NC(=O)c1cncc2c1cnn2-c1ccc(F)cc1)c1ccnc(C#N)c1` [1-(4-Fluorophenyl)-1H-pyrazolo[3,4-c]pyridine-4-carboxylic acid [(S)-1-(2-cyano-pyridin-4-yl)-propyl]-amide], 0.3 nM.
As for `CSc1ncc([C@H](C)NC(=O)c2cncc3c2cnn3-c2ccc(F)cc2)o1` [1-(4-Fluorophenyl)-1H-pyrazolo[3,4-c]pyridine-4-carboxylic acid [(S)-1-(2-methylsulfanyl-oxazol-5-yl)-ethyl]-amide], the IC50 was found to be 6 nM.
For `CCC(NC(=O)c1cncc2c1cnn2-c1ccc(F)cc1)c1nc(C(=O)NC)c(C)o1` (stereo not drawn) [1-(4-Fluorophenyl)-1H-pyrazolo[3,4-c]pyridine-4-carboxylic acid [1-(5-methyl-4-methylcarbamoyl-oxazol-2-yl)-propyl]-amide], the IC50 is 9 nM.
For `CC[C@H](NC(=O)c1cncc2c1cnn2-c1ccc(F)cc1)c1ccnc(N2CCC(F)(F)CC2)c1` [1-(4-Fluorophenyl)-1H-pyrazolo[3,4-c]pyridine-4-carboxylic acid [(S)-1-(4,4-difluoro-3,4,5,6-tetrahydro-2H-[1,2′]bipyridinyl-4′-yl)-propyl]-amide] the value was 3 nM; for `CS(=O)(=O)c1cc(CNC(=O)c2cncc3c2cnn3-c2ccc(F)cc2)cc(=O)[nH]1` [1-(4-Fluorophenyl)-1H-pyrazolo[3,4-c]pyridine-4-carboxylic acid (6-methanesulfonyl-2-oxo-1,2-dihydropyridin-4-ylmethyl)-amide], 17 nM.
On to `Cc1cc(CNC(=O)c2cncc3c2cnn3-c2ccc(F)cc2)cc(S(C)(=O)=O)n1` [1-(4-Fluorophenyl)-1H-pyrazolo[3,4-c]pyridine-4-carboxylic acid (2-methanesulfonyl-6-methyl-pyridin-4-ylmethyl)-amide], for which the IC50 was 5 nM.
For `CCC(NC(=O)c1cncc2c1cnn2-c1ccc(F)cc1)c1nc(C(N)=O)co1` (stereo not drawn) [1-(4-Fluorophenyl)-1H-pyrazolo[3,4-c]pyridine-4-carboxylic acid [1-(4-carbamoyl-oxazol-2-yl)-propyl]-amide] the value was 36 nM; for `CCC[C@H](NC(=O)c1cncc2c1cnn2-c1ccc(F)cc1)c1ccnc(S(=O)(=O)CC)c1` [1-(4-Fluorophenyl)-1H-pyrazolo[3,4-c]pyridine-4-carboxylic acid [(S)-1-(2-ethanesulfonyl-pyridin-4-yl)-butyl]-amide], 0.1 nM; for `CC[C@H](NC(=O)c1cncc2c1cnn2-c1ccc(F)cc1)c1ccnc(CO)c1` [1-(4-Fluorophenyl)-1H-pyrazolo[3,4-c]pyridine-4-carboxylic acid [(S)-1-(2-hydroxymethyl-pyridin-4-yl)-propyl]-amide], 3 nM.
Under `C[C@H](NC(=O)c1cncc2c1cnn2-c1ccc(F)cc1)c1cc(N(C)CC(N)=O)nc(S(C)(=O)=O)c1` [1-(4-Fluorophenyl)-1H-pyrazolo[3,4-c]pyridine-4-carboxylic acid {(S)-1-[2-(carbamoylmethyl-methyl-amino)-6-methanesulfonyl-pyridin-4-yl]-ethyl}-amide] stands 1 nM; under `CC[C@H](NC(=O)c1cncc2c1cnn2-c1ccc(F)cc1)c1ccnc(N(C)C(C)=O)c1` [1-(4-Fluorophenyl)-1H-pyrazolo[3,4-c]pyridine-4-carboxylic acid {(S)-1-[2-(acetyl-methyl-amino)-pyridin-4-yl]-propyl}-amide], 5 nM; under `O=C(NCc1cnc(N2CCOCC2)s1)c1cncc2c1cnn2-c1ccc(F)cc1` [1-(4-Fluorophenyl)-1H-pyrazolo[3,4-c]pyridine-4-carboxylic acid (2-morpholin-4-yl-thiazol-5-ylmethyl)-amide], 16 nM.
Under `CC[C@@H](NC(=O)c1cncc2c1cnn2-c1ccc(F)cc1)c1cc(S(C)(=O)=O)cn1S(=O)(=O)c1ccc(C)cc1` [1-(4-Fluorophenyl)-1H-pyrazolo[3,4-c]pyridine-4-carboxylic acid {(R)-1-[4-methanesulfonyl-1-(toluene-4-sulfonyl)-1H-pyrrol-2-yl]-propyl}-amide] stands 16 nM; under `CCC(NC(=O)c1cncc2c1cnn2-c1ccc(F)cc1)C1CCCN(S(C)(=O)=O)C1` (stereo not drawn) [1-(4-Fluorophenyl)-1H-pyrazolo[3,4-c]pyridine-4-carboxylic acid [1-(1-methanesulfonyl-piperidin-3-yl)-propyl]-amide], 2 nM.
In the case of `CC[C@H](NC(=O)c1cncc2c1cnn2-c1ccc(F)cc1)c1ccccn1` [1-(4-Fluorophenyl)-1H-pyrazolo[3,4-c]pyridine-4-carboxylic acid ((S)-1-pyridin-2-yl-propyl)-amide], the IC50 was 23 nM.
Under `CC[C@H](NC(=O)c1cncc2c1cnn2-c1ccc(F)cc1)c1ccc(S(C)(=O)=O)nc1` [1-(4-Fluorophenyl)-1H-pyrazolo[3,4-c]pyridine-4-carboxylic acid [(S)-1-(6-methanesulfonyl-pyridin-3-yl)-propyl]-amide] stands 1 nM; under `CC[C@H](NC(=O)c1cncc2c1cnn2-c1ccc(F)cc1)c1cccc(S(=O)(=O)CC)n1` [1-(4-Fluorophenyl)-1H-pyrazolo[3,4-c]pyridine-4-carboxylic acid [(S)-1-(6-ethanesulfonyl-pyridin-2-yl)-propyl]-amide], 0.5 nM.
Under `CC[C@H](NC(=O)c1cncc2c1cnn2-c1ccc(F)cc1)c1cc(OC)nc(S(C)(=O)=O)c1` [1-(4-Fluorophenyl)-1H-pyrazolo[3,4-c]pyridine-4-carboxylic acid [(S)-1-(2-methanesulfonyl-6-methoxy-pyridin-4-yl)-propyl]-amide] stands 0.1 nM.
As to `C[C@H](NC(=O)c1cncc2c1cnn2-c1ccc(F)cc1)c1cccc(S(N)(=O)=O)n1` [1-(4-Fluorophenyl)-1H-pyrazolo[3,4-c]pyridine-4-carboxylic acid [(S)-1-(6-sulfamoyl-pyridin-2-yl)-ethyl]-amide], the IC50 turned out to be 15 nM.
For `C[C@H](NC(=O)c1cncc2c1cnn2-c1ccc(F)cc1)c1ccnc(Br)c1` [1-(4-Fluorophenyl)-1H-pyrazolo[3,4-c]pyridine-4-carboxylic acid [(S)-1-(2-bromopyridin-4-yl)-ethyl]-amide] the value was 0.4 nM; for `CC[C@H](NC(=O)c1cncc2c1cnn2-c1ccc(F)cc1)c1nc(C(N)=O)cs1` [1-(4-Fluorophenyl)-1H-pyrazolo[3,4-c]pyridine-4-carboxylic acid [(S)-1-(4-carbamoyl-thiazol-2-yl)-propyl]-amide], 8 nM.
Under `CC[C@H](NC(=O)c1cncc2c1cnn2-c1ccc(F)cc1)c1cccc(S(C)(=O)=O)n1` [1-(4-Fluorophenyl)-1H-pyrazolo[3,4-c]pyridine-4-carboxylic acid [(S)-1-(6-methanesulfonyl-pyridin-2-yl)-propyl]-amide] stands 0.2 nM.

By IC50 is commonly meant the point on the concentration scale where inhibition reaches its midpoint.

(Values after patent US8063065B2, “Azaindazole compounds as CCR1 receptor antagonists” (Boehringer Ingelheim International GmbH, priority 2008, dated 2011).)
